Experimental data reported in ChEMBL document CHEMBL3396992, “Synthesis and biological evaluation of pyrazolylthiazole carboxylic acids as potent anti-inflammatory-antimicrobial agents” (2015).
In brackets after ≈: the same amount, converted by molar mass. Activity calls are given as the source filed them. The calls are words filed in the database; no cut-off is given here.

Tests used:
Rattus norvegicus [1] = assay: Antiinflammatory activity against carrageenan-induced paw edema male Wistar albino rat assessed as edema volume at 50 mg/kg, po administered 30 mins prior to carrageenan-challenge measured after 1 hr (reference value: 1.11 +/- 0.12 mL); assay type: functional
Rattus norvegicus [2] = assay: Antiinflammatory activity against carrageenan-induced paw edema male Wistar albino rat assessed as edema volume at 50 mg/kg, ip administered 30 mins prior to carrageenan-challenge measured after 2 hrs (reference value: 1.21 +/- 0.16 mL); assay type: functional; details: route intraperitoneal
Rattus norvegicus [3] = assay: Antiinflammatory activity against carrageenan-induced paw edema male Wistar albino rat assessed as edema volume at 50 mg/kg, ip administered 30 mins prior to carrageenan-challenge measured after 3 hrs (reference value: 1.73 +/- 0.09 mL); assay type: functional; details: route intraperitoneal
Rattus norvegicus [4] = assay: Antiinflammatory activity against carrageenan-induced paw edema male Wistar albino rat assessed as edema volume at 50 mg/kg, ip administered 30 mins prior to carrageenan-challenge measured after 4 hrs (reference value: 1.88 +/- 0.20 mL); assay type: functional; details: route intraperitoneal
Rattus norvegicus [5] = assay: Antiinflammatory activity against carrageenan-induced paw edema male Wistar albino rat at 50 mg/kg, ip administered 30 mins prior to carrageenan-challenge measured after 1 hr relative to control; assay type: functional; details: route intraperitoneal
Rattus norvegicus [6] = assay: Antiinflammatory activity against carrageenan-induced paw edema male Wistar albino rat at 50 mg/kg, ip administered 30 mins prior to carrageenan-challenge measured after 2 hrs relative to control; assay type: functional; details: route intraperitoneal
Rattus norvegicus [7] = assay: Antiinflammatory activity against carrageenan-induced paw edema male Wistar albino rat at 50 mg/kg, ip administered 30 mins prior to carrageenan-challenge measured after 3 hrs relative to control; assay type: functional; details: route intraperitoneal
Rattus norvegicus [8] = assay: Antiinflammatory activity against carrageenan-induced paw edema male Wistar albino rat at 50 mg/kg, ip administered 30 mins prior to carrageenan-challenge measured after 4 hrs relative to control; assay type: functional; details: route intraperitoneal
Staphylococcus aureus [9] = assay: Antimicrobial activity against Staphylococcus aureus MTCC 96 assessed as growth inhibition at 4 mg/ml after 24 hrs by agar well diffusion method; assay type: functional; details: for zone of inhibition at 4000 µg/mL: MTCC 96, 24 h, read-out: DIZ
Staphylococcus aureus [10] = assay: Antimicrobial activity against Staphylococcus aureus MTCC 96 assessed as growth inhibition after 24 hrs by agar well diffusion method; assay type: functional
Bacillus subtilis [11] = assay: Antimicrobial activity against Bacillus subtilis MTCC 121 assessed as growth inhibition at 4 mg/ml after 24 hrs by agar well diffusion method; assay type: functional; details: for zone of inhibition at 4000 µg/mL: MTCC 121, 24 h, read-out: DIZ
Bacillus subtilis [12] = assay: Antimicrobial activity against Bacillus subtilis MTCC 121 assessed as growth inhibition after 24 hrs by agar well diffusion method; assay type: functional
Escherichia coli = assay: Antimicrobial activity against Escherichia coli MTCC 1652 assessed as growth inhibition at 4 mg/ml after 24 hrs by agar well diffusion method; assay type: functional, organism-based
Saccharomyces cerevisiae [13] = assay: Antimicrobial activity against Saccharomyces cerevisiae MTCC 170 assessed as growth inhibition at 4 mg/ml after 24 hrs by agar well diffusion method; assay type: functional; details: for zone of inhibition at 4000 µg/mL: MTCC 170, 24 h, read-out: DIZ
Saccharomyces cerevisiae [14] = assay: Antimicrobial activity against Saccharomyces cerevisiae MTCC 170 assessed as growth inhibition after 24 hrs by agar well diffusion method; assay type: functional
Candida albicans [15] = assay: Antimicrobial activity against Candida albicans MTCC 3017 assessed as growth inhibition at 4 mg/ml after 24 hrs by agar well diffusion method; assay type: functional; details: MTCC 3017, 24 h, read-out: DIZ
Candida albicans [16] = assay: Antimicrobial activity against Candida albicans MTCC 3017 assessed as growth inhibition after 24 hrs by agar well diffusion method; assay type: functional; details: MTCC 3017, 24 h
Pseudomonas aeruginosa = details: MTCC 741, 4 mg/ml
Description: Antimicrobial activity against Pseudomonas aeruginosa MTCC 741 assessed as growth inhibition at 4 mg/ml after 24 hrs by agar well diffusion method

Compound	Activity (Rattus norvegicus [1])	Activity (Rattus norvegicus [2])	Activity (Rattus norvegicus [3])	Activity (Rattus norvegicus [4])	Activity (Rattus norvegicus [5])	Activity (Rattus norvegicus [6])	Activity (Rattus norvegicus [7])	Activity (Rattus norvegicus [8])	zone of inhibition at 4000 µg/mL (Staphylococcus aureus [9])	MIC (Staphylococcus aureus [10]; MTCC 96, 24 h)	zone of inhibition at 4000 µg/mL (Bacillus subtilis [11])	MIC (Bacillus subtilis [12]; MTCC 121, 24 h)	diameter of the inhibition zone (DIZ) (Escherichia coli)	zone of inhibition at 4000 µg/mL (Saccharomyces cerevisiae [13])	MIC (Saccharomyces cerevisiae [14]; MTCC 170, 24 h)	zone of inhibition at 4000 µg/mL (Candida albicans [15])	MIC (Candida albicans [16])	DIZ (Pseudomonas aeruginosa)	diameter of the inhibition zone (DIZ) (Saccharomyces cerevisiae [13])	MIC (Saccharomyces cerevisiae [14])	other results
O=C(O)c1sc(-c2cn(-c3ccccc3)nc2-c2ccc(F)cc2)nc1-c1ccc(Cl)cc1	0.33 mL	0.64 mL	0.75 mL	0.37 mL	70.27%	47.1%	56.14%	80.31%	21.6 mm	25 µg/mL (≈ 52.5 µM)	18.3 mm	25 µg/mL (≈ 52.5 µM)	inactive	20.6 mm	25 µg/mL (≈ 52.5 µM)	20.6 mm	25 µg/mL (≈ 52.5 µM)	inactive			
COc1ccc(-c2nc(-c3cn(-c4ccccc4)nc3-c3ccc(F)cc3)sc2C(=O)O)cc1	0.22 mL	0.4 mL	0.56 mL	0.36 mL	80.18%	66.94%	67.63%	80.85%	20.6 mm	25 µg/mL (≈ 53 µM)	14.6 mm	50 µg/mL (≈ 106 µM)	inactive	15.3 mm	50 µg/mL (≈ 106 µM)	15.3 mm	50 µg/mL (≈ 106 µM)	inactive			
CCOC(=O)c1sc(-c2cn(-c3ccccc3)nc2-c2ccc(OC)cc2)nc1-c1ccc(F)cc1	0.18 mL	0.18 mL	0.31 mL	0.37 mL	83.78%	85.12%	82.08%	80.31%			20.6 mm	25 µg/mL (≈ 50 µM)	inactive			24.6 mm	12.5 µg/mL (≈ 25 µM)	inactive	inactive	inactive	diameter of the inhibition zone (DIZ) (Staphylococcus aureus [9]): inactive; MIC (Staphylococcus aureus [10]): inactive
COc1ccc(-c2nn(-c3ccccc3)cc2-c2nc(-c3ccc(F)cc3)c(C(=O)O)s2)cc1	0.19 mL	0.22 mL	0.31 mL	0.18 mL	82.88%	81.81%	82.08%	90.42%	12 mm	50 µg/mL (≈ 106 µM)	12 mm	50 µg/mL (≈ 106 µM)	inactive	15.3 mm	50 µg/mL (≈ 106 µM)	12 mm	50 µg/mL (≈ 106 µM)	inactive			
CCOC(=O)c1sc(-c2cn(-c3ccccc3)nc2-c2ccc(Cl)cc2)nc1-c1ccccc1	0.12 mL	0.22 mL	0.32 mL	0.28 mL	89.89%	81.81%	81.5%	85.1%			12 mm	50 µg/mL (≈ 103 µM)	inactive			16 mm	50 µg/mL (≈ 103 µM)	inactive	inactive	inactive	diameter of the inhibition zone (DIZ) (Staphylococcus aureus [9]): inactive; MIC (Staphylococcus aureus [10]): inactive
CCOC(=O)c1sc(-c2cn(-c3ccccc3)nc2-c2ccc(OC)cc2)nc1-c1ccc(Cl)cc1	0.15 mL	0.38 mL	0.38 mL	0.53 mL	86.48%	68.59%	78.03%	71.8%			14.3 mm	50 µg/mL (≈ 96.9 µM)	inactive			14.3 mm	50 µg/mL (≈ 96.9 µM)	inactive	inactive	inactive	diameter of the inhibition zone (DIZ) (Staphylococcus aureus [9]): inactive; MIC (Staphylococcus aureus [10]): inactive
O=C(O)c1sc(-c2cn(-c3ccccc3)nc2-c2ccc(Cl)cc2)nc1-c1ccccc1	0.32 mL	0.46 mL	0.69 mL	0.54 mL	71.17%	61.98%	60.11%	71.27%	22.6 mm	25 µg/mL (≈ 54.6 µM)	22.6 mm	12.5 µg/mL (≈ 27.3 µM)	inactive	26.6 mm	6.25 µg/mL (≈ 13.6 µM)	24.6 mm	6.25 µg/mL (≈ 13.6 µM)	inactive			
C[C@@H]1[C@H](O)[C@@H](C)/C=C/C=C/C=C/C=C/C=C/C=C/C=C/[C@H](O[C@@H]2O[C@H](C)[C@@H](O)[C@H](N)[C@@H]2O)C[C@@H]2O[C@](O)(C[C@@H](O)C[C@@H](O)[C@H](O)CC[C@@H](O)C[C@@H](O)CC(=O)O[C@H]1C)C[C@H](O)[C@H]2C(=O)O [AMPHOTERICIN B]														19.3 mm	6.25 µg/mL (≈ 6.76 µM)	16.6 mm	6.25 µg/mL (≈ 6.76 µM)				
CCOC(=O)c1sc(-c2cn(-c3ccccc3)nc2-c2ccc(OC)cc2)nc1-c1ccc(OC)cc1	0.15 mL	0.19 mL	0.27 mL	0.17 mL	86.48%	84.29%	84.39%	90.95%	15 mm	50 µg/mL (≈ 97.7 µM)						16.6 mm	50 µg/mL (≈ 97.7 µM)		inactive	inactive	diameter of the inhibition zone (DIZ) (Bacillus subtilis [11]): inactive; MIC (Bacillus subtilis [12]): inactive
